{"source": "patent US7396837B2", "about": "“Antitumoral analogs of lamellarins” (Pharma Mar, S.A.U., priority 2002, dated 2008)", "key": {"[1]": {"tested_on": "K-562", "assay": "SRB colorimetric cell growth inhibition assay, K-562", "format": "cell-based", "conditions": "K-562", "procedure,_shortened": "(§1)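 Tested samples remained on human cancer cell cultures throughout the incubation; viable biomass was then stained with SRB and read colorimetrically.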"}, "[2]": {"tested_on": "A-549", "assay": "SRB colorimetric cell growth inhibition assay, A-549", "format": "cell-based", "conditions": "A-549", "procedure,_shortened": "as §1"}, "[3]": {"tested_on": "SK-MEL-28", "assay": "SRB colorimetric cell growth inhibition assay, SK-MEL-28", "format": "cell-based", "conditions": "MEL-28", "procedure,_shortened": "as §1"}, "[4]": {"tested_on": "HT-29", "assay": "SRB colorimetric cell growth inhibition assay, HT-29", "format": "cell-based", "conditions": "HT-29", "procedure,_shortened": "as §1"}, "[5]": {"tested_on": "LoVo", "assay": "SRB colorimetric cell growth inhibition assay, LoVo", "format": "cell-based", "conditions": "LOVO", "procedure,_shortened": "as §1"}, "[6]": {"tested_on": "LoVo-Dox", "assay": "SRB colorimetric cell growth inhibition assay, LoVo-Dox (MDR)", "format": "cell-based", "conditions": "LOVO-DOX", "procedure,_shortened": "as §1"}, "[7]": {"tested_on": "DU-145", "assay": "SRB colorimetric cell growth inhibition assay, DU-145", "format": "cell-based", "conditions": "DU-145", "procedure,_shortened": "as §1"}, "[8]": {"tested_on": "LNCaP", "assay": "SRB colorimetric cell growth inhibition assay, LNCaP", "format": "cell-based", "conditions": "LN-caP", "procedure,_shortened": "as §1"}, "[9]": {"tested_on": "SK-BR-3", "assay": "SRB colorimetric cell growth inhibition assay, SK-BR-3", "format": "cell-based", "conditions": "SK-BR-3", "procedure,_shortened": "as §1"}, "[10]": {"tested_on": "IGROV", "assay": "SRB colorimetric cell growth inhibition assay, IGROV", "format": "cell-based", "conditions": "IGROV", "procedure,_shortened": "as §1"}, "[11]": {"tested_on": "IGROV-ET", "assay": "SRB colorimetric cell growth inhibition assay, IGROV-ET (ET-743 resistant)", "format": "cell-based", "conditions": "IGROV-ET", "procedure,_shortened": "as §1"}, "[12]": {"tested_on": "PANC-1", "assay": "SRB colorimetric cell growth inhibition assay, PANC-1", "format": "cell-based", "conditions": "PANC-1", "procedure,_shortened": "as §1"}, "[13]": {"tested_on": "SKOV-3", "assay": "SRB colorimetric cell growth inhibition assay, SKOV-3", "format": "cell-based", "conditions": "SKOV-3", "procedure,_shortened": "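Growth and viability quantified by sulforhodamine B staining in 96-well microplates. Triplicate wells give mean ± SD; derived endpoints are GI, TGI (cytostatic) and LC (cytotoxic).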"}, "[14]": {"tested_on": "H-MEC-1", "assay": "SRB colorimetric cell growth inhibition assay, H-MEC-1", "format": "cell-based", "conditions": "H-MEC-1", "text": "Inhibition of Cell Growth by Colorimetric Assay.\nA colorimetric type of assay, using sulforhodamine B (SRB) reaction has been adapted for a quantitative measurement of cell growth and viability (following the technique described by P. A. Skehan, et al., J. Natl. Cancer Inst. 1990, 82, 1107-1112).\nThis form of assay employs 96 well cell culture microplates of 9 mm diameter (T. Mosmann et al., J. of Immunological Methods 1983, 65, 55-63; G. T. Faircloth et al., J. of Tissue and Culture Methods 1988, 11, 201-205).\nMost of the cell lines are obtained from American Type Culture Collection (ATCC) derived from different human cancer types.\nThe values for mean +/− SD of data from triplicate wells are calculated. Some parameters for cellular responses can be calculated: GI=growth inhibition, TGI=total growth inhibition (cytostatic effect) and LC=cell killing (cytotoxic effect)."}, "[15]": {"molecular_target": "T1, human topoisomerase I (Homo sapiens, UniProt P11387)", "T1 sequence (P11387 1-765)": "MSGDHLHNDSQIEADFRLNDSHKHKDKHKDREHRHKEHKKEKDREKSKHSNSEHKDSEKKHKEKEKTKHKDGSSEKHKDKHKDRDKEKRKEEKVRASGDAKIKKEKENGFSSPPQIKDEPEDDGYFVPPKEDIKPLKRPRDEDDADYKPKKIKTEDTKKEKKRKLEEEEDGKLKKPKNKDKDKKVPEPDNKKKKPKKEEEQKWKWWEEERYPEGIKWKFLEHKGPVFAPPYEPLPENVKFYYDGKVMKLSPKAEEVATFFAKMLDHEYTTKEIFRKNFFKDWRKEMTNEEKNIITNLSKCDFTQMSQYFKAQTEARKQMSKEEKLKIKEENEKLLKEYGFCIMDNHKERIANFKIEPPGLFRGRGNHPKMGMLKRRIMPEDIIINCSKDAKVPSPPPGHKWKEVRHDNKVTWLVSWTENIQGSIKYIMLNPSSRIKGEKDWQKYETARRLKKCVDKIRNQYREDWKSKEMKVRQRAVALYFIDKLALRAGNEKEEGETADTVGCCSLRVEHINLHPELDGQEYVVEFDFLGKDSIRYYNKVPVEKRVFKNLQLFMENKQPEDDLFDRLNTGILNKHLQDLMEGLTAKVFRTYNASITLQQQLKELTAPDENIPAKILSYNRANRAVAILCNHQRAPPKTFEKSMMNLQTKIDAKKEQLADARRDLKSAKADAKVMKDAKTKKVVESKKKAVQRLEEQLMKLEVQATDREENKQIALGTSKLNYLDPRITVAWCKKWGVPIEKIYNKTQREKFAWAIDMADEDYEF", "assay": "Topoisomerase I DNA relaxation assay (supercoiled plasmid DNA)", "format": "biochemical", "conditions": "supercoiled plasmid DNA, each compound tested at 1 μM, agarose gel with ethidium bromide", "description": "Two assays, based on DNA relaxation and DNA cleavage (Bailly, C. DNA relaxation and cleavage assays to study topoisomerase I inhibitors. Methods Enzymol. 2001, 340, 610-623) were used evaluate the effects of the lamellarin analogs on the catalytic activity of human topoisomerase I.\nIn the first assay, a supercoiled plasmid DNA was relaxed with topoisomerase I in the absence or presence of the test compounds, each tested at 1 μM. DNA relaxation products were then resolved by gel electrophoresis on agarose gels containing ethidium bromide to stain the DNA."}, "[16]": {"conditions": "total growth inhibition (cytostatic effect)"}, "[17]": {"conditions": "TGI=total growth inhibition (cytostatic effect)"}}}
{"smiles": "COc1cc(-c2c3n(c4c(=O)oc5cc(OC(C)=O)c(OC)cc5c24)CCc2cc(OC)c(OC(C)=O)cc2-3)ccc1OC(C)=O", "note": "[Compound 94]", "values": [{"measurement": "GI50", "setting": "[1]; GI=growth inhibition, read-out: GI50 K-562", "value": 0.526, "unit": "µM"}, {"measurement": "CC50", "setting": "[1]; cell killing (cytotoxic effect), read-out: LC50 K-562", "value": 4.32, "unit": "µM"}, {"measurement": "TGI K-562", "setting": "[1]; [16]", "value": "1.82E−06", "unit": "Molar"}, {"measurement": "GI50", "setting": "[2]; GI=growth inhibition, read-out: GI50 A-549", "value": 7.19, "unit": "µM"}, {"measurement": "CC50", "setting": "[2]; cell killing (cytotoxic effect), read-out: LC50 A-549", "value": 15.9, "unit": "µM"}, {"measurement": "TGI A-549", "setting": "[2]; [16]", "value": "1.59E−05", "unit": "Molar"}, {"measurement": "GI50", "setting": "[3]; GI=growth inhibition, read-out: GI50 MEL-28", "value": 2.45, "unit": "µM"}, {"measurement": "CC50", "setting": "[3]; LC=cell killing (cytotoxic effect), read-out: LC50 MEL-28", "value": 15.9, "unit": "µM"}, {"measurement": "TGI MEL-28", "setting": "[3]; [17]", "value": "7.31E−06", "unit": "Molar"}, {"measurement": "GI50", "setting": "[4]; GI=growth inhibition, read-out: GI50 HT-29", "value": 15.5, "unit": "µM"}, {"measurement": "CC50", "setting": "[4]; cell killing (cytotoxic effect), read-out: LC50 HT-29", "value": 15.9, "unit": "µM"}, {"measurement": "TGI HT-29", "setting": "[4]; [16]", "value": "1.59E−05", "unit": "Molar"}, {"measurement": "GI50", "setting": "[5]; GI=growth inhibition, read-out: GI50 LOVO", "value": 5.7, "unit": "µM"}, {"measurement": "CC50", "setting": "[5]; cell killing (cytotoxic effect), read-out: LC50 LOVO", "value": 15.9, "unit": "µM"}, {"measurement": "TGI LOVO", "setting": "[5]; [16]", "value": "1.59E−05", "unit": "Molar"}, {"measurement": "GI50", "setting": "[6]; GI=growth inhibition, read-out: GI50 LOVO-DOX", "value": 2.84, "unit": "µM"}, {"measurement": "CC50", "setting": "[6]; cell killing (cytotoxic effect), read-out: LC50 LOVO-DOX", "value": 15.9, "unit": "µM"}, {"measurement": "TGI LOVO-DOX", "setting": "[6]; [16]", "value": "8.25E−06", "unit": "Molar"}, {"measurement": "GI50", "setting": "[7]; GI=growth inhibition, read-out: GI50 DU-145", "value": 13.1, "unit": "µM"}, {"measurement": "CC50", "setting": "[7]; LC=cell killing (cytotoxic effect), read-out: LC50 DU-145", "value": 15.9, "unit": "µM"}, {"measurement": "TGI DU-145", "setting": "[7]; [17]", "value": "1.59E−05", "unit": "Molar"}, {"measurement": "GI50", "setting": "[8]; GI=growth inhibition, read-out: GI50 LN-caP", "value": 0.673, "unit": "µM"}, {"measurement": "CC50", "setting": "[8]; LC=cell killing (cytotoxic effect), read-out: LC50 LN-caP", "value": 12.5, "unit": "µM"}, {"measurement": "TGI LN-caP", "setting": "[8]; [17]", "value": "2.87E−06", "unit": "Molar"}, {"measurement": "GI50", "setting": "[9]; GI=growth inhibition, read-out: GI50 SK-BR-3", "value": 3.35, "unit": "µM"}, {"measurement": "CC50", "setting": "[9]; LC=cell killing (cytotoxic effect), read-out: LC50 SK-BR-3", "value": 15.9, "unit": "µM"}, {"measurement": "TGI SK-BR-3", "setting": "[9]; [17]", "value": "1.24E−05", "unit": "Molar"}, {"measurement": "GI50", "setting": "[10]; GI=growth inhibition, read-out: GI50 IGROV", "value": 1.83, "unit": "µM"}, {"measurement": "CC50", "setting": "[10]; LC=cell killing (cytotoxic effect), read-out: LC50 IGROV", "value": 15.9, "unit": "µM"}, {"measurement": "TGI IGROV", "setting": "[10]; [17]", "value": "5.90E−06", "unit": "Molar"}, {"measurement": "GI50", "setting": "[11]; GI=growth inhibition, read-out: GI50 IGROV-ET", "value": 1.59, "unit": "µM"}, {"measurement": "CC50", "setting": "[11]; LC=cell killing (cytotoxic effect), read-out: LC50 IGROV-ET", "value": 15.9, "unit": "µM"}, {"measurement": "TGI IGROV-ET", "setting": "[11]; [17]", "value": "1.59E−05", "unit": "Molar"}, {"measurement": "GI50", "setting": "[12]; GI=growth inhibition, read-out: GI50 PANC-1", "value": 2.12, "unit": "µM"}, {"measurement": "CC50", "setting": "[12]; cell killing (cytotoxic effect), read-out: LC50 PANC-1", "value": 15.9, "unit": "µM"}, {"measurement": "TGI PANC-1", "setting": "[12]; [16]", "value": "1.59E−05", "unit": "Molar"}, {"measurement": "GI50", "setting": "[13]; GI=growth inhibition, read-out: GI50 SKOV-3", "value": 8.48, "unit": "µM"}, {"measurement": "CC50", "setting": "[13]; LC=cell killing (cytotoxic effect), read-out: LC50 SKOV-3", "value": 15.9, "unit": "µM"}, {"measurement": "TGI SKOV-3", "setting": "[13]; [17]", "value": "1.59E−05", "unit": "Molar"}, {"measurement": "GI50", "setting": "[14]; GI=growth inhibition", "value": 15.9, "unit": "µM"}, {"measurement": "CC50", "setting": "[14]; LC=cell killing (cytotoxic effect), read-out: LC50 H-MEC-1", "value": 15.9, "unit": "µM"}, {"measurement": "TGI H-MEC-1", "setting": "[14]; [17]", "value": "1.59E−05", "unit": "Molar"}]}
{"smiles": "COc1cc(-c2c3n(c4c(=O)oc5cc(OC(C)=O)c(OC)cc5c24)CCc2cc(OC(C)=O)c(OC)cc2-3)ccc1OC(C)=O", "note": "[Compound 108]", "values": [{"measurement": "stimulation of DNA cleavage by topoisomerase I / inhibition of topoisomerase I (nicked DNA band) in DNA relaxation assay", "setting": "[15]", "value": "inactive"}]}
{"smiles": "COc1cc(-c2c3c4cc(OC)c(OC(=O)[C@H](NC(=O)OC(C)(C)C)C(C)C)cc4oc(=O)c3n3ccc4cc(OC(=O)[C@H](NC(=O)OC(C)(C)C)C(C)C)c(OC)cc4c23)ccc1OC(=O)[C@H](NC(=O)OC(C)(C)C)C(C)C", "note": "[Compound 122]", "values": [{"measurement": "stimulation of DNA cleavage by topoisomerase I / inhibition of topoisomerase I (nicked DNA band) in DNA relaxation assay", "setting": "[15]", "value": "No effect"}]}
